From ChEMBL document CHEMBL3822381, “Design, synthesis, and evaluation of Trolox-conjugated amyloid-β C-terminal peptides for therapeutic intervention in an in vitro model of Alzheimer's disease” (Bioorg Med Chem, 2016)
The source made the active and inactive calls. The calls are words filed in the database; no cut-off is given here. Residues, ends and D or L forms follow the SMILES beside them. *: point of attachment. Trolox = Cc1c(C)c2c(c(C)c1O)CCC(C)(C(=O)*)O2

What was measured:
[1] = molecular target: Amyloid-beta precursor protein (Homo sapiens) (UniProt P05067); assay: Inhibition of amyloid beta (1 to 42) (unknown origin) aggregation at 80 uM by ThT-fluorescence assay relative to control
SH-SY5Y [2] = assay: Neuroprotective activity against amyloid beta (1 to 42)-induced neurotoxicity in human SH-SY5Y cells assessed as increase in cell viability at 5 to 40 uM measured after 48 hrs by WST-8 assay; format: functional, cell-based
SH-SY5Y [3] = assay: Neuroprotective activity against amyloid beta (1 to 42)-induced neurotoxicity in human SH-SY5Y cells assessed as increase in cell viability measured after 48 hrs by WST-8 assay; format: functional, cell-based
SH-SY5Y [4] = assay: Cytotoxicity against human SH-SY5Y cells assessed as cell viability up to 40 uM measured after 48 hrs by WST-8 assay; format: cell-based
SH-SY5Y [5] = assay: Neuroprotective activity against amyloid beta (1 to 42)-induced neurotoxicity in human SH-SY5Y cells assessed as increase in cell viability at 40 uM measured after 48 hrs by WST-8 assay; format: functional, cell-based
SH-SY5Y [6] = assay: Antioxidant activity in human SH-SY5Y cells assessed as inhibition of H2O2-induced ROS production preincubated for 1 day prior H2O2 treatment at 25 uM by DCFH-DA-based fluorescence analysis; format: functional, cell-based
SH-SY5Y [7] = assay: Antioxidant activity against human SH-SY5Y cells assessed as amyloid beta (1 to 42)-induced ROS production preincubated for 1 day prior H2O2 treatment at 1.25 uM by DCFH-DA-based fluorescence analysis relative to control; format: functional
SH-SY5Y [8] = assay: Neuroprotective activity against amyloid beta (1 to 42)-induced neurotoxicity in human SH-SY5Y cells assessed as increase in cell viability at 20 uM measured after 48 hrs by WST-8 assay; format: functional, cell-based

Sequence of Amyloid-beta precursor protein (Homo sapiens) (P05067 whole entry): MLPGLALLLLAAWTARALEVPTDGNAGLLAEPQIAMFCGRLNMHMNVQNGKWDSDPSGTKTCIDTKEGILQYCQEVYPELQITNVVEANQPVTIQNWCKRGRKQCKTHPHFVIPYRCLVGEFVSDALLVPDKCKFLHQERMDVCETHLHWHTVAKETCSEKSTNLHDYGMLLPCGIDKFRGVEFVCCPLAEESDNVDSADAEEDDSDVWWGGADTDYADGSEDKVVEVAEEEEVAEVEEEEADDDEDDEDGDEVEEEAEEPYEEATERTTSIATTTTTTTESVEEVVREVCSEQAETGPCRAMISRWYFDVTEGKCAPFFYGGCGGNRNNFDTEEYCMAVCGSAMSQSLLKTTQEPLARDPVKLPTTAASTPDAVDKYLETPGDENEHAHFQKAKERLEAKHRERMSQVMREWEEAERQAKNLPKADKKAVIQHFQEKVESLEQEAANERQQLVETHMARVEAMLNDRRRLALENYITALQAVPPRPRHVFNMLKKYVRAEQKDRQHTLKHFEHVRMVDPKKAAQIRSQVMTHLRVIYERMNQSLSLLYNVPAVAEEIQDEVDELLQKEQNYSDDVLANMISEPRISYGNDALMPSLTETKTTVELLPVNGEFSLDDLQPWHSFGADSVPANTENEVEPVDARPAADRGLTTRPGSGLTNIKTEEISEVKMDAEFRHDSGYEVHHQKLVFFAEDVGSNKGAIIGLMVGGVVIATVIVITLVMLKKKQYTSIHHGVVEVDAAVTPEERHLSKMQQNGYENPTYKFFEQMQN

inhibition [1]	Compound	further results
2.8%	CC[C@H](C)[C@H](NC(=O)[C@@H](NC(=O)C1(C)CCc2c(C)c(O)c(C)c(C)c2O1)C(C)C)C(=O)N[C@@H](C)C(=O)O (stereo partly drawn)	
39.5%	CC[C@H](C)[C@H](NC(=O)[C@@H](NC(=O)[C@@H](NC(=O)CNC(=O)CNC(=O)[C@@H](NC(=O)[C@H](CCSC)NC(=O)[C@H](CC(C)C)NC(=O)C1(C)CCc2c(C)c(O)c(C)c(C)c2O1)C(C)C)C(C)C)C(C)C)C(=O)N[C@@H](C)C(=O)O (stereo partly drawn)	
inactive	Cc1c(C)c2c(c(C)c1O)CCC(C)(C(=O)NCC(=O)N[C@H](C(=O)N[C@H](C(=O)O)C(C)C)C(C)C)O2 (stereo partly drawn)	
inactive	Cc1c(C)c2c(c(C)c1O)CCC(C)(C(=O)N[C@H](C(=O)O)C(C)C)O2 (stereo partly drawn)	
4.7%	CC[C@H](C)[C@H](NC(=O)[C@@H](NC(=O)[C@@H](NC(=O)CNC(=O)C1(C)CCc2c(C)c(O)c(C)c(C)c2O1)C(C)C)C(C)C)C(=O)N[C@@H](C)C(=O)O (stereo partly drawn) (Trolox-GVVIA-OH)	
5%	CC[C@H](C)[C@H](NC(=O)[C@@H](NC(=O)[C@@H](NC(=O)CNC(=O)C1(C)CCc2c(C)c(O)c(C)c(C)c2O1)C(C)C)C(C)C)C(=O)N[C@@H](C)C(=O)N[C@H](C(=O)O)[C@@H](C)O (stereo partly drawn) (Trolox-GVVIAT-OH)	
inactive	CSCC[C@H](NC(=O)[C@H](CC(C)C)NC(=O)C1(C)CCc2c(C)c(O)c(C)c(C)c2O1)C(=O)N[C@H](C(=O)NCC(=O)NCC(=O)N[C@H](C(=O)N[C@H](C(=O)O)C(C)C)C(C)C)C(C)C (stereo partly drawn) (Trolox-LMVGGVV-OH)	
40.4%	CC[C@H](C)[C@H](NC(=O)[C@@H](NC(=O)[C@@H](NC(=O)CNC(=O)CNC(=O)[C@@H](NC(=O)[C@H](CCSC)NC(=O)[C@H](CC(C)C)NC(=O)C1(C)CCc2c(C)c(O)c(C)c(C)c2O1)C(C)C)C(C)C)C(C)C)C(=O)N[C@@H](C)C(=O)N[C@H](C(=O)O)[C@@H](C)O (stereo partly drawn) (Trolox-LMVGGVVIAT-OH)	
inactive	Cc1c(C)c2c(c(C)c1O)CCC(C)(C(=O)N[C@H](C(=O)NCC(=O)NCC(=O)N[C@H](C(=O)N[C@H](C(=O)O)C(C)C)C(C)C)C(C)C)O2 (stereo partly drawn) (Trolox-VGGVV-OH)	Activity (SH-SY5Y [2]): inactive
17.7%	CC[C@H](C)[C@H](NC(=O)[C@@H](NC(=O)[C@@H](NC(=O)CNC(=O)CNC(=O)[C@@H](NC(=O)C1(C)CCc2c(C)c(O)c(C)c(C)c2O1)C(C)C)C(C)C)C(C)C)C(=O)N[C@@H](C)C(=O)O (stereo partly drawn) (Trolox-VGGVVIA-OH)	Activity (SH-SY5Y [3]): Dose-dependent effect; Activity (SH-SY5Y [4]): Non-toxic; Activity (SH-SY5Y [5]): Active; inhibition (SH-SY5Y [6]): Active; Activity (SH-SY5Y [7]): 37.6%
17.3%	CC[C@H](C)[C@H](NC(=O)[C@@H](NC(=O)[C@@H](NC(=O)CNC(=O)CNC(=O)[C@@H](NC(=O)C1(C)CCc2c(C)c(O)c(C)c(C)c2O1)C(C)C)C(C)C)C(C)C)C(=O)N[C@@H](C)C(=O)N[C@H](C(=O)O)[C@@H](C)O (stereo partly drawn) (Trolox-VGGVVIAT-OH)	Activity (SH-SY5Y [4]): Non-toxic; Activity (SH-SY5Y [5]): inactive; Activity (SH-SY5Y [8]): Active
6.6%	CC[C@H](C)[C@H](NC(=O)[C@@H](NC(=O)C1(C)CCc2c(C)c(O)c(C)c(C)c2O1)C(C)C)C(=O)N[C@@H](C)C(=O)N[C@H](C(=O)O)[C@@H](C)O (stereo partly drawn) (Trolox-VIAT-OH)	
	Cc1c(C)c2c(c(C)c1O)CCC(C)(C(=O)O)O2 (stereo not drawn) [TROLOX]	inhibition (SH-SY5Y [6]): Active; Activity (SH-SY5Y [7]): 23.6%
